Among the data in patent publication US10377743B2, “Inhibitors of RAS and methods of use thereof” (Araxes Pharma LLC, priority 2016, dated 2019) are Binding % values, retold here.

SMILES strings stand for the structures.

For the test, the target named is T1, KRAS G12C 1-169, his-tagged protein, GDP-loaded (Homo sapiens, UniProt P01116, G12C).
T1 construct: KRAS G12C 1-169, his-tagged protein, GDP-loaded
Briefly: Biochemical assay: covalent binding (modification %) to KRAS G12C by mass spectrometry. The following applies: 2 hour incubation period, 8 μM compound (compounds 21-92).
Turning to `C=CC(=O)N1CC(N2Cc3c(C#N)cc(-c4c(C)ccc5[nH]ncc45)cc3C2=O)C1` [Compound 89, 2-(1-acryloylazetidin-3-yl)-6-(5-methyl-1H-indazol-4-yl)-1-oxoisoindoline-4-carbonitrile], the Binding % result is “+ (+ indicates binding activity up to 10%)”. Take `C=CC(=O)N1CC(N2Cc3ccc(-c4ccc(O)nc4)cc3C2=O)C1` [Compound 90, 2-(1-acryloylazetidin-3-yl)-6-(6-hydroxypyridin-3-yl)isoindolin-1-one]: the Binding % result is given as “+ (+ indicates binding activity up to 10%)”. In the case of `C=CC(=O)N1CCC(N2Cc3c(C(N)=O)cc(-c4c(O)cccc4F)cc3C2=O)C1` (stereo not shown) [Compound 91, 2-(1-acryloylpyrrolidin-3-yl)-6-(2-fluoro-6-hydroxyphenyl)-1-oxoisoindoline-4-carboxamide] it was “+ (+ indicates binding activity up to 10%)”; in that of `C=CC(=O)N1CC(N2Cc3c(OC)cc(-c4c(C)ccc5[nH]ncc45)cc3C2=O)C1` [Compound 92, 2-(1-acryloylazetidin-3-yl)-4-methoxy-6-(5-methyl-1H-indazol-4-yl)isoindolin-1-one], “++ (++ indicates binding activity from 10 to 50%)”.
